From patent US7425557B2, “Inhibitors of glycogen synthase kinase 3” (Novartis Vaccines and Diagnostics, Inc., priority 1998, dated 2008)

test system: not given; test: not given; details: not given

Melting point, 223 to 225 °C (dec.):
O=[N+]([O-])c1ccc(NCCNc2nccc(-c3ccc(N4CCOCC4)cc3)n2)nc1 [[4-(4-morpholin-4-ylphenyl)-pyrimidin-2-yl]{2-[(5-nitro(2-pyridyl))amino]ethyl}amine]

target: human GSK3β (Homo sapiens, UniProt P49841); test: Screening for GSK3 inhibitory activity using a cell-free assay; format: biochemical; details: read-out: IC50 with respect to GSK3
Sequence (P49841 whole entry): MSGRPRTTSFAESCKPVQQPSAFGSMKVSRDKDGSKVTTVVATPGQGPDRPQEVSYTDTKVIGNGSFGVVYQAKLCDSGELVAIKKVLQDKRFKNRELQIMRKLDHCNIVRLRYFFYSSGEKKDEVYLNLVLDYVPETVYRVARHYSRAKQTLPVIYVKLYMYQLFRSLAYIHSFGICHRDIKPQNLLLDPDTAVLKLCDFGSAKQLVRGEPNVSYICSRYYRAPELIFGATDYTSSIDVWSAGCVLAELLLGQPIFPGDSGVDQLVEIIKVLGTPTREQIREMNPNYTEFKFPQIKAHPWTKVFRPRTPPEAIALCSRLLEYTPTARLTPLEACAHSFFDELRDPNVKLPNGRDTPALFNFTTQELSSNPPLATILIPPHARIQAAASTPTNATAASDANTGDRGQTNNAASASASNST
Method in brief: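 Compounds in DMSO were tested against human GSK3β over a three-hour kinase reaction. Radiolabeled phosphate transferred to the peptide was captured on streptavidin plates after EDTA/ATP stop and quantified by scintillation counting. Signal was plotted versus compound concentration.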

IC50, ≤ 1000 nM:
O=[N+]([O-])c1ccc(NCCNc2nccc(-c3ccc(N4CCOCC4)cc3)n2)nc1 [[4-(4-morpholin-4-ylphenyl)-pyrimidin-2-yl]{2-[(5-nitro(2-pyridyl))amino]ethyl}amine]
Nc1nc(NCCNc2ncc(-n3cnc(-c4ccccc4)c3)c(-c3ccc(Cl)cc3Cl)n2)ccc1[N+](=O)[O-] [{2-[(6-amino-5-nitro(2-pyridyl))amino]ethyl}[4-(2,4-dichlorophenyl)-5-(4-phenylimidazolyl)pyrimidin-2-yl]amine]
Nc1nc(NCCNc2ncc(-c3ccncc3)c(-c3ccc(Cl)cc3Cl)n2)ccc1[N+](=O)[O-] [{2-[(6-amino-5-nitro(2-pyridyl))amino]ethyl}[4-(2,4-dichlorophenyl)-5-(4-pyridyl)pyrimidin-2-yl]amine]
Nc1nc(NCCNc2ncc(CN3CCOCC3)c(-c3ccc(Cl)cc3Cl)n2)ccc1[N+](=O)[O-] [{2-[(6-amino-5-nitro(2-pyridyl))amino]ethyl}[4-(2,4-dichlorophenyl)-5-(morpholin-4-ylmethyl)pyrimidin-2-yl]amine]
Nc1nc(NCCNc2ncc(N3CCOCC3)c(-c3ccc(Cl)cc3Cl)n2)ccc1[N+](=O)[O-] [{2-[(6-amino-5-nitro(2-pyridyl))amino]ethyl}[4-(2,4-dichlorophenyl)-5-morpholin-4-yl-pyrimidin-2-yl]amine]
Cc1c[nH]c(-c2cnc(NCCNc3ccc([N+](=O)[O-])c(N)n3)nc2-c2ccc(F)cc2Cl)n1 [{2-[(6-amino-5-nitro(2-pyridyl))amino]ethyl}[4-(2-chloro-4-fluorophenyl)-5-(4-methylimidazol-2-yl)pyrimidin-2-yl]amine]
Nc1nc(NCCNc2ncc(-c3ncc[nH]3)c(-c3ccc(F)cc3Cl)n2)ccc1[N+](=O)[O-] [{2-[(6-amino-5-nitro(2-pyridyl))amino]ethyl}[4-(2-chloro-4-fluorophenyl)-5-imidazol-2-ylpyrimidin-2-yl]amine]
Nc1nc(NCCNc2ncc(-c3ncc[nH]3)c(-c3ccccc3Cl)n2)ccc1[N+](=O)[O-] [{2-[(6-amino-5-nitro(2-pyridyl))amino]ethyl}[4-(2-chlorophenyl)-5-imidazol-2-ylpyrimidin-2-yl]amine]
Cc1c[nH]c(-c2cnc(NCCNc3ccc([N+](=O)[O-])c(N)n3)nc2-c2ccc(Br)cc2Cl)n1 [{2-[(6-amino-5-nitro(2-pyridyl))amino]ethyl}[4-(4-bromo-2-chlorophenyl)-5-(4-methylimidazol-2-yl)pyrimidin-2-yl]amine]
Nc1nc(NCCNc2ncc(-c3ncc[nH]3)c(-c3ccc(Br)cc3Cl)n2)ccc1[N+](=O)[O-] [{2-[(6-amino-5-nitro(2-pyridyl))amino]ethyl}[4-(4-bromo-2-chlorophenyl)-5-imidazol-2-ylpyrimidin-2-yl]amine]
Cc1cc(Cl)ccc1-c1nc(NCCNc2ccc([N+](=O)[O-])c(N)n2)ncc1-c1ncc[nH]1 [{2-[(6-amino-5-nitro(2-pyridyl))amino]ethyl}[4-(4-chloro-2-methylphenyl)-5-imidazol-2-ylpyrimidin-2-yl]amine]
CCc1ccc(-c2nc(NCCNc3ccc([N+](=O)[O-])c(N)n3)ncc2-n2ccnc2)cc1 [{2-[(6-amino-5-nitro(2-pyridyl))amino]ethyl}[4-(4-ethylphenyl)-5-imidazolylpyrimidin-2-yl]amine]
Cc1cn(-c2ccc(NCCNc3ccc([N+](=O)[O-])c(N)n3)nc2-c2ccc(Cl)cc2Cl)cn1 [{2-[(6-amino-5-nitro(2-pyridyl))amino]ethyl}[6-(2,4-dichlorophenyl)-5-(4-methylimidazolyl)(2-pyridyl)]amine]
Nc1nc(NCCNc2ccc(-n3ccnc3)c(-c3ccc(Cl)cc3Cl)n2)ccc1[N+](=O)[O-] [{2-[(6-amino-5-nitro(2-pyridyl))amino]ethyl}[6-(2,4-dichlorophenyl)-5-imidazolyl(2-pyridyl)]amine]
Nc1nc(NCCNc2ccc([N+](=O)[O-])c(-c3ccc(Cl)cc3Cl)n2)ccc1[N+](=O)[O-] [{2-[(6-amino-5-nitro(2-pyridyl))amino]ethyl}[6-(2,4-dichlorophenyl)-5-nitro(2-pyridyl)]amine]
Nc1nc(NCCNc2ncc(-n3nnnc3C(F)(F)F)c(-c3ccc(Cl)cc3Cl)n2)ccc1[N+](=O)[O-] [{2-[(6-amino-5-nitro(2-pyridyl))amino]ethyl}{4-(2,4-dichlorophenyl)-5-[5-(trifluoromethyl)(1,2,3,4-tetraazolyl)]pyrimidin-2-yl}amine]
N#Cc1cnc(NCCNc2nccc(-c3ccc(C(=O)NCc4cccc(Br)c4)cc3)n2)nc1N [{4-[2-({2-[(4-amino-5-cyanopyrimidin-2-yl)amino]ethyl}amino)pyrimidin-4-yl]phenyl}-N-[(3-bromophenyl)methyl]carboxamide]
O=[N+]([O-])c1ccc(NCCNc2ncc(-c3ncc[nH]3)c(-c3ccc(C(F)(F)F)cc3)n2)nc1 [{5-imidazol-2-yl-4-[4-(trifluoromethyl)phenyl]pyrimidin-2-yl}{2-[(5-nitro(2-pyridyl))amino]ethyl}amine]

IC50, ≤ 10000 nM:
NS(=O)(=O)c1ccc(CNC(=O)c2ccc(-c3ccnc(NCCNc4ccc([N+](=O)[O-])cn4)n3)cc2)cc1 [{4-[2-({2-[(5-nitro(2-pyridyl))-amino]ethyl}amino)pyrimidin-4-yl]phenyl}-N-[(4-sulfamoylphenyl)methyl]carboxamide]
O=C(NCCc1ccccc1)c1ccc(-c2ccnc(NCCNc3ccc([N+](=O)[O-])cn3)n2)cc1 [{4-[2-({2-[(5-nitro(2-pyridyl))amino]ethyl}amino)-pyrimidin-4-yl]phenyl}-N-(2-phenylethyl)carboxamide]
O=C(NCc1cccs1)c1ccc(-c2ccnc(NCCNc3ccc([N+](=O)[O-])cn3)n2)cc1 [{4-[2-({2-[(5-nitro(2-pyridyl))amino]ethyl}amino)-pyrimidin-4-yl]phenyl}-N-(2-thienylmethyl)carboxamide]
O=C(NC1CC1c1ccccc1)c1ccc(-c2ccnc(NCCNc3ccc([N+](=O)[O-])cn3)n2)cc1 (stereo not drawn) [{4-[2-({2-[(5-nitro(2-pyridyl))amino]ethyl}amino)pyrimidin-4-yl]phenyl}-N-(2-phenylcyclopropyl)-carboxamide]
O=C(NCc1cccnc1)c1ccc(-c2ccnc(NCCNc3ccc([N+](=O)[O-])cn3)n2)cc1 [{4-[2-({2-[(5-nitro(2-pyridyl))amino]ethyl}amino)pyrimidin-4-yl]phenyl}-N-(3-pyridylmethyl)carboxamide]
O=C(NCC1CCNCC1)c1ccc(-c2ccnc(NCCNc3ccc([N+](=O)[O-])cn3)n2)cc1 [{4-[2-({2-[(5-nitro(2-pyridyl))amino]ethyl}amino)pyrimidin-4-yl]phenyl}-N-(4-piperidylmethyl)carboxamide]
O=C(NCC1CCCO1)c1ccc(-c2ccnc(NCCNc3ccc([N+](=O)[O-])cn3)n2)cc1 (stereo not drawn) [{4-[2-({2-[(5-nitro(2-pyridyl))amino]ethyl}amino)pyrimidin-4-yl]phenyl}-N-(oxolan-2-ylmethyl)carboxamide]
O=C(NCc1cccc([N+](=O)[O-])c1)c1ccc(-c2ccnc(NCCNc3ccc([N+](=O)[O-])cn3)n2)cc1 [{4-[2-({2-[(5-nitro(2-pyridyl))amino]ethyl}amino)pyrimidin-4-yl]phenyl}-N-[(3-nitrophenyl)-methyl]carboxamide]
O=C(NCc1ccccc1)c1ccc(-c2ccnc(NCCNc3ccc([N+](=O)[O-])cn3)n2)cc1 [{4-[2-({2-[(5-nitro(2-pyridyl))amino]ethyl}amino)pyrimidin-4-yl]phenyl}-N-benzylcarboxamide]
O=C(NCc1cccc(C(F)(F)F)c1)c1ccc(-c2ccnc(NCCNc3ccc([N+](=O)[O-])cn3)n2)cc1 [{4-[2-({2-[(5-nitro(2-pyridyl))amino]ethyl}amino)pyrimidin-4-yl]phenyl}-N-{[3-(trifluoromethyl)phenyl]methyl}carboxamide]
Nc1nc(NCCNc2nccc(-c3ccc(C(=O)NCc4cccc(Br)c4)cc3)n2)ccc1[N+](=O)[O-] [{4-[2-({2-[(6-amino-5-nitro(2-pyridyl))amino]ethyl}amino)pyrimidin-4-yl]phenyl}-N-[(3-bromophenyl)methyl]-carboxamide]
Nc1nc(NCCNc2nccc(-c3ccc(C(=O)NCc4ccccc4)cc3)n2)ccc1[N+](=O)[O-] [{4-[2-({2-[(6-amino-5-nitro(2-pyridyl))amino]ethyl}amino)pyrimidin-4-yl]phenyl}-N-benzylcarboxamide]
O=[N+]([O-])c1ccc(NCCNc2nccc(-c3ccc(-c4nc(Cl)c(Cl)[nH]4)cc3)n2)nc1 [{4-[4-(4,5-dichloroimidazol-2-yl)phenyl]-pyrimidin-2-yl}{2-[(5-nitro(2-pyridyl))amino]ethyl}amine]
COCCNc1nc(NCCNc2ccc([N+](=O)[O-])cn2)ccc1[N+](=O)[O-] [{6-[(2-methoxyethyl)amino]-5-nitro(2-pyridyl)}{2-[(5-nitro(2-pyridyl))amino]ethyl}amine]
